Reference: US20250388544A1, “HETEROAROMATIC INHIBITORS OF ASTACIN PROTEINASES” (VIVORYON THERAPEUTICS N.V., priority 2019, published 2025)

How the values were obtained:
Type in all cases: biochemical
hMeprin α = biological target: T1, hMeprin α (Homo sapiens, UniProt Q16819); assay: Enzymatic assay, quenched peptide substrate cleavage, method B; settings: geometric mean (geometric SD factor in parentheses); for Ki: Morrison's equation, read-out: Meprin alpha Ki(app); for IC50: read-out: Meprin alpha IC50
T1 sequence (Q16819 66-746): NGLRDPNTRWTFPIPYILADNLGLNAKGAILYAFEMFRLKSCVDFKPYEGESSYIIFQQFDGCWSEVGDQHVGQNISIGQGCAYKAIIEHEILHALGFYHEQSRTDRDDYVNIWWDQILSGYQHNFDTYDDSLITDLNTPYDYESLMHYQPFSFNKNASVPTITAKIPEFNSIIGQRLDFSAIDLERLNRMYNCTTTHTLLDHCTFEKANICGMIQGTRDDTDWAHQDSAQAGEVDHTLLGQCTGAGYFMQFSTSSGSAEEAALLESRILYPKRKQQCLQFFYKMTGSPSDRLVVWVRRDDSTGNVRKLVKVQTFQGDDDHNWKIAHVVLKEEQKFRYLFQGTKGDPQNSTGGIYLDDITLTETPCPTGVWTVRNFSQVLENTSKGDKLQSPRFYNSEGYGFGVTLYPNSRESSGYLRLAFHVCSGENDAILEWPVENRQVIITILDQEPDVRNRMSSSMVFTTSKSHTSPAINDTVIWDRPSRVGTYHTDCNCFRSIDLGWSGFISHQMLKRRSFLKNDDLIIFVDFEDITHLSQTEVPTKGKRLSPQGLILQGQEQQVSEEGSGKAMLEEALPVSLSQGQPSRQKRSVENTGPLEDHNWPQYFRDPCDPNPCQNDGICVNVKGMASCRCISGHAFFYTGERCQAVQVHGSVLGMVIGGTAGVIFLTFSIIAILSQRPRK
How it was run: (§1)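 Cleavage of internally quenched peptides was read at 340/420 nm and 30° C., with enzyme at 5e-8 to 2e-10 M and substrate at 0.15–80 μM. Inhibitor solutions contained 1% DMSO and substrate 0.5% DMSO. Method B gave Ki(app) values via Morrison's equation, with kinetics measured in at least duplicate on separate days.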

hMeprin β = biological target: T2, hMeprin β (Homo sapiens, UniProt Q16820); assay: as above; settings: geometric mean (geometric SD factor in parentheses); for Ki: Morrison's equation, read-out: Meprin beta Ki(app); for IC50: read-out: Meprin beta IC50
T2 sequence (Q16820 62-701): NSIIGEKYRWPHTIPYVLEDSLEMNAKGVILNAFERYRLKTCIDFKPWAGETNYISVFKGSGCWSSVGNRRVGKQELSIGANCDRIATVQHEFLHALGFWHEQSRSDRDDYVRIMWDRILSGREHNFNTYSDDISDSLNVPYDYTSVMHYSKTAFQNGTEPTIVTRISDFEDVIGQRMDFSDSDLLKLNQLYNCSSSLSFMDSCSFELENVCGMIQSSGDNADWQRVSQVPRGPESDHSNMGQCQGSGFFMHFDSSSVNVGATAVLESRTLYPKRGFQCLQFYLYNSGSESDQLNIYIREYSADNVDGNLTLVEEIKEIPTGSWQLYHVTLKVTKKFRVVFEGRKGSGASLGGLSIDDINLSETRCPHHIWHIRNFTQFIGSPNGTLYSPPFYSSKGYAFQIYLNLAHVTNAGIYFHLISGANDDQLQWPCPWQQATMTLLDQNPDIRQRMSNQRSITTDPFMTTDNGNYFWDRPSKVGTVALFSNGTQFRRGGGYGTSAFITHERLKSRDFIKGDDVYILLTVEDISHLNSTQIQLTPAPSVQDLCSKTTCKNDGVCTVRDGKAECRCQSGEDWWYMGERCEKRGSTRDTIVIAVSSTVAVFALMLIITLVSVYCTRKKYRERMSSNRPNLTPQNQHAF
How it was run: as §1

hMMP 13 = biological target: T3, hMMP 13 (Homo sapiens, UniProt P45452); assay: Residual enzyme activity of other metalloproteases; settings: read-out: Residual enzyme activity MMP13; for remaining activity at 10 µM: 10 μM inhibitor; for remaining activity at 200 µM: 200 μM inhibitor
T3 construct: purchased R&D systems
Protocol: (§2) A typical assay of 250 μl total volume measured in black 96 well plates consisted of 100 μl buffer, 50 μl enzyme at a final concentration of 5e-8 M to 2e-10 M, 50 μl substrate (0.15 to 80 μM, in buffer, 0.5% DMSO) and 50 μl inhibitor solution (in buffer, 1% DMSO). In case of 125 μl assay volume (black 96 half area well plates) all volumes were cut in half. Enzymatic activity of ADAMs was measured in 384 well plates with 60 μl total assay volume consisting of 20 μl inhibitor, 20 μl buffer, 10 μl enzyme and 10 μl substrate.
(§3) MMPs were activated prior to measurement by APMA (p-aminophenylmercuric acetate) treatment according to manufacturer's instructions (R&D systems).

hMMP 2 = biological target: T4, hMMP 2 (Homo sapiens, UniProt P08253); assay: Residual enzyme activity of other metalloproteases; settings: read-out: Residual enzyme activity MMP2; for remaining activity at 10 µM: 10 μM inhibitor; for remaining activity at 200 µM: 200 μM inhibitor
T4 construct: purchased Abnova
T4 sequence (P08253 110-660): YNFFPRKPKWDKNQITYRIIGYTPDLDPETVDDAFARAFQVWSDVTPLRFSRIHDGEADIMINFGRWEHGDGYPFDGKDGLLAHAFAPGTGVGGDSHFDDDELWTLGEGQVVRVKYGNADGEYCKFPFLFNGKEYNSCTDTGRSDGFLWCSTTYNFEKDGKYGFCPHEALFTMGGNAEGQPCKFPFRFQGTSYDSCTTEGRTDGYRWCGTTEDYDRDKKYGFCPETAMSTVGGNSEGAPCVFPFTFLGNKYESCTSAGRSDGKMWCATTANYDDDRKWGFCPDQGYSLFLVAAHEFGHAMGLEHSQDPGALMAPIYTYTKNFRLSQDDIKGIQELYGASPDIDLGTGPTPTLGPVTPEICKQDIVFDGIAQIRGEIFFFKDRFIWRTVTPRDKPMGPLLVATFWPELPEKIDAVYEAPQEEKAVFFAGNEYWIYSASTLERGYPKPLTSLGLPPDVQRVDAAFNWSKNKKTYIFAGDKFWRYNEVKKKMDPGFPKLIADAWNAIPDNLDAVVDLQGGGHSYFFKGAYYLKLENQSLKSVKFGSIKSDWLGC
Protocol: as §2, §3

SMILES | IC50 (hMeprin α) | IC50 (hMeprin β) | remaining activity at 10 µM (hMMP 13) | remaining activity at 200 µM (hMMP 13) | remaining activity at 10 µM (hMMP 2) | remaining activity at 200 µM (hMMP 2) | Ki (hMeprin α) | Ki (hMeprin β)
COc1ccc(-c2n[nH]c(-c3ccccc3)c2CC(=O)NO)cc1OC [Example 49, 2-[3-(3,4-Dimethoxyphenyl)-5-phenyl-1H-pyrazol-4-yl]ethanehydroxamic acid] | 0.79 nM | 84 nM | 101% | 18% | 83% | 26% | 0.71 nM | 83 nM
O=C(Cn1c(-c2ccccc2)cc2ccccc21)NO [Example 25, 2-(2-Phenylindol-1-yl)ethanehydroxamic acid] |  |  | 77% | 54% | 85% | 41% |  | 
O=C(Cc1c(-c2cccc(C(=O)O)c2)n[nH]c1-c1ccc(Cl)c(O)c1F)NO [Example 63, 3-[5-(4-Chloro-2-fluoro-3-hydroxy-phenyl)-4-[2-(hydroxyamino)-2-oxo-ethyl]-1H-pyrazol-3-yl]benzoic acid] | 5 nM | 4 nM | 105% | 73% | 95% | 81% | 5 nM | 4 nM
O=C(Cc1c(-c2cc(F)c(O)c(Cl)c2)n[nH]c1-c1ccccc1)NO [Example 54, 2-[3-(3-Chloro-5-fluoro-4-hydroxy-phenyl)-5-phenyl-1H-pyrazol-4-yl]ethanehydroxamic acid] | 0.21 nM | 0.44 nM | 88% | 28% | 66% | 17% | 0.14 nM | 0.42 nM
O=C(Cn1c(-c2ccccc2)nc2ccccc21)NO [Example 13, 2-(2-Phenylbenzimidazol-1-yl)ethanehydroxamic acid] | 141 nM | 1140 nM | 102% | 72% | 89% | 46% | 128 nM | 1130 nM
O=C(Cc1c(-c2ccccc2)nn(Cc2ccc(Cl)c(O)c2F)c1-c1ccccc1)NO [Example 42, 2-[1-(4-Chloro-2-fluoro-3-hydroxybenzyl)-3,5-diphenyl-1H-pyrazol-4-yl]ethanehydroxamic acid] | 0.16 nM | 10 nM | 84% | 9% | 69% | 18% | 0.08 nM | 9 nM
O=C(Cc1c(-c2ccccc2)nn(Cc2ccc3c(c2)OCO3)c1-c1ccccc1)NO [Example 43, 2-[1-(1,3-Benzodioxol-5-ylmethyl)-3,5-diphenyl-1H-pyrazol-4-yl]ethanehydroxamic acid] | 0.75 nM | 310 nM | 78% | 51% | 77% | 60% | 0.59 nM | 305 nM
O=C(Cc1c(-c2ccccc2)noc1-c1ccccc1)NO [Example 2, 2-(3,5-Diphenylisoxazol-4-yl)ethanehydroxamic acid] | 4 nM | 586 nM | 80% | 31% | 87% | 34% | 4 nM | 584 nM

Second part, led by results:

IC50 (hMeprin α) | IC50 (hMeprin β) | remaining activity at 10 µM (hMMP 13) | remaining activity at 200 µM (hMMP 13) | remaining activity at 10 µM (hMMP 2) | remaining activity at 200 µM (hMMP 2) | SMILES | Ki (hMeprin α) | Ki (hMeprin β)
80 nM | 9660 nM | 93% | 68% | 97% | 77% | O=C(CCc1c(-c2ccccc2)n[nH]c1-c1ccccc1)NO [Example 3, 3-(3,5-Diphenyl-1H-pyrazol-4-yl)propanehydroxamic acid] | 78 nM | 9350 nM
 |  | 93% | 76% | 95% | 70% | O=C(Cn1c(-c2ccccc2)nnc1-c1ccccc1)NO [Example 7, 2-(3,5-Diphenyl-1,2,4-triazol-4-yl)ethanehydroxamic acid] |  | 
1 nM | 119 nM | 75% | 67% | 104% | 61% | O=C(Cc1c(-c2ccccc2)n[nH]c1-c1ccccc1)NO [Example 1, 2-(3,5-Diphenyl-1H-pyrazol-4-yl)ethanehydroxamic acid] |  | 
 |  | 79% | 5% | 83% | 1% | O=C(Cn1c(-c2ccccc2)ccc1-c1ccccc1)NO [Example 9, 2-(2,5-Diphenylpyrrol-1-yl)ethanehydroxamic acid] |  | 
0.39 nM | 10 nM | 83% | 34% | 89% | 34% | O=C(Cc1c(-c2ccccc2)nn(Cc2cccc(C(=O)O)c2)c1-c1ccccc1)NO [Example 41, 3-[[4-[2-(Hydroxyamino)-2-oxo-ethyl]-3,5-diphenyl-1H-pyrazol-1-yl]methyl]benzoic acid] | 0.33 nM | 11 nM
0.45 nM | 9 nM | 86% | 22% | 85% | 24% | O=C(Cc1c(-c2ccccc2)nn(Cc2ccc(C(=O)O)cc2)c1-c1ccccc1)NO [Example 40, 4-[[4-(2-(Hydroxyamino)-2-oxo-ethyl]-3,5-diphenyl-1H-pyrazol-1-yl]methyl]benzoic acid] | 0.38 nM | 9 nM
 |  | 79% | 66% | 98% | 74% | O=C(CCc1c(-c2ccccc2)noc1-c1ccccc1)NO [Example 4, 3-(3,5-Diphenylisoxazol-4-yl)propanehydroxamic acid] |  | 
